Assay results as given in patent US9718817B2, “Aryl and heteroaryl ether compounds as ROR gamma modulators” (Glenmark Pharmaceuticals S.A., priority 2014, dated 2017).

Molecular target: T1, GST-tagged ROR gamma ligand binding domain (LBD) (Homo sapiens, UniProt P51449)
T1 construct: purchased Invitrogen
T1 sequence (P51449 269-508 limits assumed): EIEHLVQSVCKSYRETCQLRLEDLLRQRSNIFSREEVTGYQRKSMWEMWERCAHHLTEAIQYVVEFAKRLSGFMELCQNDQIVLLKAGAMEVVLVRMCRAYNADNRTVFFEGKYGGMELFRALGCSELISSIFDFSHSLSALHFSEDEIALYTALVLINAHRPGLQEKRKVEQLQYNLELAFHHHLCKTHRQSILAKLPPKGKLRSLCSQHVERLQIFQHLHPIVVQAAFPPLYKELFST
Test: TR-FRET assay for ROR gamma (LanthaScreen co-activator peptide recruitment)
Format: biochemical
Conditions: for IC50: class symbols, from dose response curve; for inhibition at 1 µM: compound 1 μM; for inhibition at 1 µM / inhibition at 10 µM: TR-FRET ratio 520/495, percent of control; for inhibition at 10 µM: compound 10 μM
How it was run: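 Antagonist mode: 10 nM GST-RORγ LBD pre-incubated with compound 1 h at 22 °C in 25 mM HEPES pH 7.4, 100 mM NaCl, 5 mM DTT, 0.01% BSA, 4% DMSO final. Then 300 nM fluorescein-D22 co-activator peptide plus 10 nM Tb-anti-GST added, 1 h at room temperature. IC50 by nonlinear regression of the 520/495 TR-FRET ratio as percent of no-compound control.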

`CCS(=O)(=O)c1ccc(CC(=O)Nc2ccc(OC(C)(C)c3ccc(C(F)(F)F)cc3)cc2)cc1` [Example 9, 2-[4-(Ethylsulfonyl)phenyl]-N-[4-({2-[4-(trifluoromethyl)phenyl]propan-2-yl}oxy)phenyl]acetamide] was tested, and the IC50 was under 0.05 µM, the inhibition at 1 µM was 86.5% and the inhibition at 10 µM was 89%.
Compound `CCS(=O)(=O)c1ccc(CC(=O)Nc2ccc(C#CC(C)(C)Oc3ccc(OC(F)F)cc3)cc2)cc1` [Example 78, N-{4-[3-(4-Difluoromethoxy-phenoxy)-3-methyl-but-1-yn-1-yl]-phenyl}-2-(4-ethanesulfonyl-phenyl)-acetamide] has an IC50 of under 0.05 µM, an inhibition at 1 µM of 85.2% and an inhibition at 10 µM of 87.4%.
For `CCS(=O)(=O)c1ccc(CC(=O)Nc2ccc(C#CCOc3ccc(Cl)cc3Cl)cc2)cc1` [Example 60, N-{4-[3-(2,4-Dichlorophenoxy)prop-1-yn-1-yl]phenyl}-2-[4-(ethylsulfonyl)phenyl]acetamide], the IC50 was over 0.1 µM, the inhibition at 1 µM was 92.6% and the inhibition at 10 µM was 90.4%.
Work on `CCS(=O)(=O)c1ccc(CC(=O)Nc2ccc(OC(C)(C)c3ccc(Cl)cc3Cl)cc2)cc1` [Example 3, N-(4-{[2-(2,4-Dichlorophenyl)propan-2-yl]oxy}phenyl)-2-[4-(ethylsulfonyl)phenyl]acetamide] yielded an IC50 of under 0.05 µM, an inhibition at 1 µM of 81.3% and an inhibition at 10 µM of 83.4%.
With `CCS(=O)(=O)c1ccc(CC(=O)Nc2ccc(C#CC(C)(C)Oc3cc(F)c(F)c(F)c3)cc2)cc1` [Example 71, 2-(4-Ethanesulfonyl-phenyl)-N-{4-[3-methyl-3-(3,4,5-trifluoro-phenoxy)-but-1-yn-1-yl]-phenyl}-acetamide] the IC50 was under 0.05 µM, the inhibition at 1 µM was 75.9% and the inhibition at 10 µM was 79.9%.
In the case of `CCS(=O)(=O)c1ccc(CC(=O)Nc2ccc3c(c2)nc(C(C)(C)Oc2ccc(Cl)cc2F)n3C)cc1` [Example 83, N-{2-[1-(4-Chloro-2-fluoro-phenoxy)-1-methyl-ethyl]-1-methyl-1H-benzoimidazol-5-yl}-2-(4-ethanesulfonyl-phenyl)-acetamide], the IC50 is reported as 0.05 to 0.1 µM, the inhibition at 1 µM is reported as 83.3% and the inhibition at 10 µM is reported as 92%.
Work on `CCS(=O)(=O)c1ccc(CC(=O)Nc2ccc(OC(C)(C)Cn3ccc4cc(Cl)ccc43)cc2)cc1` [Example 29, N-(4-{[1-(5-Chloro-1H-indol-1-yl)-2-methylpropan-2-yl]oxy}phenyl)-2-[4-(ethylsulfonyl)phenyl]acetamide] yielded an IC50 of under 0.05 µM, an inhibition at 1 µM of 80.3% and an inhibition at 10 µM of 82.8%.
With `CCn1c(C2(Oc3ccc(NC(=O)Cc4ccc(S(=O)(=O)CC)cc4)cc3)CCC2)nc2cc(F)ccc21` [Example 26, 2-(4-Ethanesulfonyl-phenyl)-N-{4-[1-(1-ethyl-5-fluoro-1H-benzoimidazol-2-yl)-cyclobutoxy]-phenyl}-acetamide] the IC50 was 0.05 to 0.1 µM, the inhibition at 1 µM was 80.5% and the inhibition at 10 µM was 90.9%.
Work on `CCS(=O)(=O)c1ccc(CC(=O)Nc2ccc(OC(C)(C)Cn3c(C)cc4cc(F)ccc43)c(F)c2)cc1` [Example 108, 2-(4-Ethanesulfonyl-phenyl)-N-{3-fluoro-4-[2-(5-fluoro-2-methyl-indol-1-yl)-1,1-dimethyl-ethoxy]-phenyl}-acetamide] yielded an inhibition at 1 µM of 9.67% and an inhibition at 10 µM of 61.4%.
Work on `CCS(=O)(=O)c1ccc(CC(=O)Nc2ccc(OC3(c4ccc(F)cc4F)CCCCC3)c(F)c2)cc1` [Example 140, N-(4-((1-(2,4-Difluorophenyl)cyclohexyl)oxy)-3-fluorophenyl)-2-(4-(ethylsulfonyl)phenyl)acetamide] yielded an IC50 of under 0.05 µM, an inhibition at 1 µM of 69.1% and an inhibition at 10 µM of 72.8%.
For `CCS(=O)(=O)c1ccc(CC(=O)Nc2ccc(OC(C)(C)c3ccc(F)c(F)c3)cc2)cc1` [Example 1, N-(4-{[2-(3,4-Difluorophenyl)propan-2-yl]oxy}phenyl)-2-[4(ethylsulfonyl)phenyl]acetamide], the inhibition at 1 µM was 47.7% and the inhibition at 10 µM was 74.3%.
